Drawing on the Kinase Knowledgebase extract (Sharma et al. 2016), this text covers IC50 for 24 compounds.

In general, IC50 refers to the concentration needed to halve the response being measured. The low end stands for higher potency, the high end for lower potency.

Sequence of PIK3CA (bovine) (P32871 whole entry, looked up): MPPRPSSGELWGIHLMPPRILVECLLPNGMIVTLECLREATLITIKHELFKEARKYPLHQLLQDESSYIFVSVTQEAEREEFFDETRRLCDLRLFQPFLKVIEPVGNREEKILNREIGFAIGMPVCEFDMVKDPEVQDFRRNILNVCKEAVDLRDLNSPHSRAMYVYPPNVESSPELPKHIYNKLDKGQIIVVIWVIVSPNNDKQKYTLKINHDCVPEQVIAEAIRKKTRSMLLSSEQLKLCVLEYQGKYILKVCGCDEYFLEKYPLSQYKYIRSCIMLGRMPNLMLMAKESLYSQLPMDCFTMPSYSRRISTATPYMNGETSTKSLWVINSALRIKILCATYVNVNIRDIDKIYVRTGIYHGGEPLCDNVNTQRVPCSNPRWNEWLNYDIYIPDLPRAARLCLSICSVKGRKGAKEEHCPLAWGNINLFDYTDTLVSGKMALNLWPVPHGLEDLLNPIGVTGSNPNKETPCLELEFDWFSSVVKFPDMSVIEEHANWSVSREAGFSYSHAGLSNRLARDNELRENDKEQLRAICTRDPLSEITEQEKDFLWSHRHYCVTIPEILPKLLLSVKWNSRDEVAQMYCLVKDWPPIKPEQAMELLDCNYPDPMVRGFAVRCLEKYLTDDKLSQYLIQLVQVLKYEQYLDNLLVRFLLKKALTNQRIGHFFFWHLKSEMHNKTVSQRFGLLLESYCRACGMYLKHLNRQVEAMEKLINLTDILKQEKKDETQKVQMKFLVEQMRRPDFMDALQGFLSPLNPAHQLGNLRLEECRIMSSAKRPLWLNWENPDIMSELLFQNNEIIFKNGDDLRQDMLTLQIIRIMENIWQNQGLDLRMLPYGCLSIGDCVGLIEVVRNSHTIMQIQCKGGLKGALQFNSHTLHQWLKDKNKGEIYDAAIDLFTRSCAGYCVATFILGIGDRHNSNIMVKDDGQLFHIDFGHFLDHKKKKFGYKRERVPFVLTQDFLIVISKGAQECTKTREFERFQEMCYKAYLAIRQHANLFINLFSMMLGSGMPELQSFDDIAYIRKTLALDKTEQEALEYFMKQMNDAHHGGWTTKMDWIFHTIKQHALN
Sequence of PIK3CB (P42338 whole entry, looked up): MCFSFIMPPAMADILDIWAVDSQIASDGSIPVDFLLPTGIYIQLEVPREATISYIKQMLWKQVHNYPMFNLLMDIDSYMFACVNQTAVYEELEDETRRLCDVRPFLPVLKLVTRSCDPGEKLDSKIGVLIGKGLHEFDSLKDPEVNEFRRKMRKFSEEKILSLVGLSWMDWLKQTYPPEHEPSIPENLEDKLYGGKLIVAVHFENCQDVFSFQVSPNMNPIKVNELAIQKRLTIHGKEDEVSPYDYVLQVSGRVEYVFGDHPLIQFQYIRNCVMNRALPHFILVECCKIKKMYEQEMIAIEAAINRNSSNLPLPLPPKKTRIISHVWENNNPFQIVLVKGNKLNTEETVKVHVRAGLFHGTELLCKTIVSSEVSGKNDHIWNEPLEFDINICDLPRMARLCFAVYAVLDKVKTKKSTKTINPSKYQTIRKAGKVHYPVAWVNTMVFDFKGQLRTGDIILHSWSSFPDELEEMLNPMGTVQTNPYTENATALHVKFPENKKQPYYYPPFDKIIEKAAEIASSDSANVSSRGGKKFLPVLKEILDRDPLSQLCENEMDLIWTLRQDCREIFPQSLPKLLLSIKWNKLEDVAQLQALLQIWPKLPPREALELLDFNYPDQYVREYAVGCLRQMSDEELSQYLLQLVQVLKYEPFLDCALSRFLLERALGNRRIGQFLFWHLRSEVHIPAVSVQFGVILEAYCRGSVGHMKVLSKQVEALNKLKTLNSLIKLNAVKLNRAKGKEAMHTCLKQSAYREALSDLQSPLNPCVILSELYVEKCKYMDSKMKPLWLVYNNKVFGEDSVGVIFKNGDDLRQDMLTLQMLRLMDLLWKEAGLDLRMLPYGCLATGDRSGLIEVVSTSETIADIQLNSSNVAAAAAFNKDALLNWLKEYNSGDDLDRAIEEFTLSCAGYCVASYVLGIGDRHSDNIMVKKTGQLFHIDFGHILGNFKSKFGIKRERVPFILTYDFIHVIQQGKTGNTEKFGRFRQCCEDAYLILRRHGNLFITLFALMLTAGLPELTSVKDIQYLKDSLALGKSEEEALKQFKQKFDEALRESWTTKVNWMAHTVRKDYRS

The first test deals with CDK2 (UniProt P24941). The test can be described thus: Enzyme Assay.
Compound `Oc1cccc(-c2nc(N3CCOCC3)c3sccc3n2)c1` had an IC50 of 28 µM.

The next test has as its target PIK3CB (UniProt P42338). The test can be described thus: Inhibition of PIK3CB Kinase Activity.
For `Oc1cccc(-c2nc(N3CCOCC3)c3sccc3n2)c1`, the IC50 was determined as 0.016 µM.

The next test deals with PIK3CG (UniProt P48736). The test is described as follows: Inhibition of PIK3CG Kinase Activity.
Sequence of PIK3CG (P48736 whole entry, looked up): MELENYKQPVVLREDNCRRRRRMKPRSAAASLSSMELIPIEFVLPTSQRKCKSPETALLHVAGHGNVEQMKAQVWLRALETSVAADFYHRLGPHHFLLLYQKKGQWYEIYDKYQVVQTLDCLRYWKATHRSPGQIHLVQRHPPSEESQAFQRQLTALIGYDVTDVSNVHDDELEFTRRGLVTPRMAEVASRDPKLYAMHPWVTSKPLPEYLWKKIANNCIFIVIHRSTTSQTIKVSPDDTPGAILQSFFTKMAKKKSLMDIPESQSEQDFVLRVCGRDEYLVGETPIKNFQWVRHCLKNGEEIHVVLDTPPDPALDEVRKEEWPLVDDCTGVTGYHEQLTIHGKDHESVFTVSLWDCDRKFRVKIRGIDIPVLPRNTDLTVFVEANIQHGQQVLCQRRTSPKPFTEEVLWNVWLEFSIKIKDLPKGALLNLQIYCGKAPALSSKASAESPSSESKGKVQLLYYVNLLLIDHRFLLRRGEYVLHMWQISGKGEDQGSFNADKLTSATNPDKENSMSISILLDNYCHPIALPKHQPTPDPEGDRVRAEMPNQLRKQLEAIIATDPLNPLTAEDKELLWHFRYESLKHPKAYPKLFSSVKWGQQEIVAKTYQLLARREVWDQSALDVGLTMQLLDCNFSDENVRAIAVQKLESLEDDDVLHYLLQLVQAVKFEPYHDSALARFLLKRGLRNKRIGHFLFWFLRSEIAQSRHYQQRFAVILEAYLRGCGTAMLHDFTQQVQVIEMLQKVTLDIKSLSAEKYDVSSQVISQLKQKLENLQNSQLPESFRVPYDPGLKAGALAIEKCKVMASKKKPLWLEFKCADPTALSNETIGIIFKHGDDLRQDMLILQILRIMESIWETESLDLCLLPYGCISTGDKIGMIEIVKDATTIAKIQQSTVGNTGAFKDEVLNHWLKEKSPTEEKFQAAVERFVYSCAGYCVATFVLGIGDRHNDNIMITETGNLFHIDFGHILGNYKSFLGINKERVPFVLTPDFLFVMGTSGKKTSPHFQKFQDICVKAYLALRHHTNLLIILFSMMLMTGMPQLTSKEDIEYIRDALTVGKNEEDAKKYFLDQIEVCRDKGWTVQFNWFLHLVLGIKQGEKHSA
Take `Oc1cccc(-c2nc(N3CCOCC3)c3sccc3n2)c1`: the IC50 amounted to 0.66 µM.

A further test addresses PIK3CA (bovine) (UniProt P32871). The test is described as follows: Inhibition of PIK3CA Kinase Activity.
In turn, `COc1cccc(-c2nc(N3CCOCC3)c3cc(O)ccc3n2)c1` yielded a concentration for half-maximal inhibition (IC50) of 0.6 µM.
Take `Oc1cccc(-c2nc(N3CCOCC3)c3sccc3n2)c1`: the IC50 came to 0.002 µM. This IC50 lies about 300-fold lower than the previous one.
`Oc1ccc2nc(-c3ccccc3)nc(N3CCCCC3)c2c1` yielded an IC50 greater than 60 µM.
On the same count and under the same terms, the result for `Oc1ccc2c(N3CCOCC3)nc(-c3ccccc3)nc2c1` reads 9.8 µM; that for `Oc1ccc2nc(-c3ccccc3)nc(N3CCC(O)CC3)c2c1`, 12 µM.
As for `Oc1cccc(-c2nc(N3CCOCC3)c3ccncc3n2)c1`, the IC50 came to 0.019 µM.
Regarding `Oc1ccc(-c2nc(N3CCOCC3)c3cc(O)ccc3n2)cc1`, the 50% inhibitory concentration (IC50) amounted to 2.8 µM.
As to `Oc1cccc(-c2nc(N3CCOCC3)c3ncccc3n2)c1`, the IC50 was 0.027 µM. This IC50 lies about 100-fold lower than the previous one.
`Oc1ccc2nc(-c3ccccc3O)nc(N3CCOCC3)c2c1` gave an IC50 of 2.9 µM.
`Nc1ccccc1-c1nc(N2CCOCC2)c2cc(O)ccc2n1` showed an IC50 of 3.9 µM.
`Nc1ccc(-c2nc(N3CCOCC3)c3cc(O)ccc3n2)cc1` returned an IC50 of 0.93 µM.
For the compound `Oc1cccc(-c2nc(N3CCOCC3)c3ccccc3n2)c1`, the IC50 amounted to 0.056 µM.
`Nc1cccc(-c2nc(N3CCOCC3)c3cc(O)ccc3n2)c1` returned an IC50 of 0.44 µM.
Consider `O=C1CCN(c2nc(-c3ccccc3)nc3ccc(O)cc23)CC1`, for which the IC50 turned out to be 21 µM.
Still for that read-out and setting: in the case of `COCCNc1nc(-c2ccccc2)nc2ccc(O)cc12` it was 15 µM; in that of `Oc1cccc(-c2nc(N3CCOCC3)c3cnccc3n2)c1`, 0.013 µM; in that of `Oc1cccc2nc(-c3ccccc3)nc(N3CCOCC3)c12`, greater than 30 µM.
Same read-out and setting: the result for `Oc1ccc2nc(-c3cccc(F)c3)nc(N3CCOCC3)c2c1` reads 1.8 µM; that for `OCc1ccc(-c2nc(N3CCOCC3)c3cc(O)ccc3n2)cc1`, 3.7 µM; that for `COc1ccc2nc(-c3ccccc3)nc(N3CCOCC3)c2c1`, 2.1 µM.
In the case of `Oc1ccc2nc(-c3ccccc3)nc(N3CCOCC3)c2c1`, the concentration for half-maximal inhibition (IC50) amounted to 1.3 µM.
`c1ccc(-c2nc(N3CCOCC3)c3ccccc3n2)cc1` came in with a 50% inhibitory concentration (IC50) of 14 µM.
With `OCc1cccc(-c2nc(N3CCOCC3)c3cc(O)ccc3n2)c1`, the IC50 was determined as 0.1 µM.
In turn, `Oc1cccc(-c2nc(N3CCOCC3)c3cc(O)ccc3n2)c1` yielded a half-inhibitory concentration (IC50) of 0.075 µM.
